Our source for the Ki and IC50 values is ChEMBL document CHEMBL4706508, “Discovery of first-in-class multi-target adenosine A receptor antagonists-carbonic anhydrase IX and XII inhibitors. 8-Amino-6-aryl-2-phenyl-1,2,4-triazolo [4,3-a]pyrazin-3-one derivatives as new potential antitumor agents” (Eur J Med Chem, 2020).

Assay [1] deals with Carbonic anhydrase 12 (Homo sapiens, UniProt O43570). As to the kind of experiment: Inhibition of human CA12 incubated for 15 mins by stopped- flow CO2 hydrase assay method.
Sequence of Carbonic anhydrase 12 (O43570 whole entry): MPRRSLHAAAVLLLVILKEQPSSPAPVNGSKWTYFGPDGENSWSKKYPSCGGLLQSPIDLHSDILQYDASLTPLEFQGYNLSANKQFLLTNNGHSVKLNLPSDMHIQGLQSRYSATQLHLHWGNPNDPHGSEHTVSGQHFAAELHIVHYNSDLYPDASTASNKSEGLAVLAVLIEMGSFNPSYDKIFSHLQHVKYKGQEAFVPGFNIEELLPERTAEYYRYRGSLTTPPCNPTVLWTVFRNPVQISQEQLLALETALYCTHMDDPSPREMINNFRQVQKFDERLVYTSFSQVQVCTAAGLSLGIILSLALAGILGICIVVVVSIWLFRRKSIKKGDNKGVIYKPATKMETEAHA
Assay [2] addresses T1, Adenosine receptor A1 (Homo sapiens, UniProt P30542).
T1 sequence (P30542 whole entry): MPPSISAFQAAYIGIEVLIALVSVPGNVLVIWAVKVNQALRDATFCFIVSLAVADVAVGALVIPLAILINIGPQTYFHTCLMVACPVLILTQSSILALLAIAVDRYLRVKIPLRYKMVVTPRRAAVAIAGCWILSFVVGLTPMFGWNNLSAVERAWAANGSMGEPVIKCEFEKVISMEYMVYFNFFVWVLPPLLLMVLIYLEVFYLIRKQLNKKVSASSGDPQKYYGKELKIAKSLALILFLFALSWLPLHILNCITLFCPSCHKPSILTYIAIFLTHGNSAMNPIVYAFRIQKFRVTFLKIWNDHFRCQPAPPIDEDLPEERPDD
As to the kind of experiment: Displacement of [3H]-CCPA from human A1 receptor stably expressed in CHO cell membranes by radioligand competitive binding assay. Also on record: species or system Cell membrane.

In assay [3] the target is T2, Adenosine receptor A3 (Homo sapiens, UniProt P0DMS8).
T2 sequence (P0DMS8 whole entry): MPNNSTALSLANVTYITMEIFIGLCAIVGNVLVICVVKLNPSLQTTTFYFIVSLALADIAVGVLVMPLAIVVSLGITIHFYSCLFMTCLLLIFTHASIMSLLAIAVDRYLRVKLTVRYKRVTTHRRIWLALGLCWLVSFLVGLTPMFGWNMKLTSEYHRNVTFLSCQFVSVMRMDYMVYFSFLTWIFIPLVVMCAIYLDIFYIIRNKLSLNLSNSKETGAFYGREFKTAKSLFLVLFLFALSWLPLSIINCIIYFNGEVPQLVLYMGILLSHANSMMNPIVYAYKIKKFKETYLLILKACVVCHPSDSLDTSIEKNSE
As to the kind of experiment: Displacement of [3H]-HEMADO from human A3 receptor stably expressed in CHO cell membranes by radioligand competitive binding assay. Also on record: species or system Cell membrane. On the technique in general: In a radioligand displacement assay an active substance lowers the binding of a labelled ligand.

Assay [4] addresses T3, Adenosine receptor A2b (Homo sapiens, UniProt P29275).
T3 sequence (P29275 whole entry): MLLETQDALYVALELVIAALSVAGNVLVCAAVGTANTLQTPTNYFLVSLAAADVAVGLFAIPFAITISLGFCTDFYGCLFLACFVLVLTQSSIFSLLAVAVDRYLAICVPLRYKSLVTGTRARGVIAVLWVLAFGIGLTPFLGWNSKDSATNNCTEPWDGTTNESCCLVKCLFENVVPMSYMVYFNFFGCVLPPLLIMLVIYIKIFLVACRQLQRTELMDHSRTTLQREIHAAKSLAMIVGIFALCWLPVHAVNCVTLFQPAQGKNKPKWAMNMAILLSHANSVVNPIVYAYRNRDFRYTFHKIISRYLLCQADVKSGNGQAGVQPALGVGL
The assay is described as follows: Antagonist activity at human A2B receptor expressed in CHO cell membrane assessed as reduction in NECA-[…] level by GloSensor CAMP assay. The class given is cell membranes.

For assay [5], the target named is Carbonic anhydrase 2 (Homo sapiens, UniProt P00918). As to the kind of experiment: Inhibition of human CA2 incubated for 15 mins by stopped- flow CO2 hydrase assay method.
Assay [6] has as its target Carbonic anhydrase 9 (Homo sapiens, UniProt Q16790). The assay is described as follows: Inhibition of human CA9 incubated for 15 mins by stopped- flow CO2 hydrase assay method.
Assay [7] deals with Carbonic anhydrase 1 (Homo sapiens, UniProt P00915). As to the kind of experiment: Inhibition of human CA1 incubated for 15 mins by stopped- flow CO2 hydrase assay method.
Sequence of Carbonic anhydrase 1 (P00915 whole entry): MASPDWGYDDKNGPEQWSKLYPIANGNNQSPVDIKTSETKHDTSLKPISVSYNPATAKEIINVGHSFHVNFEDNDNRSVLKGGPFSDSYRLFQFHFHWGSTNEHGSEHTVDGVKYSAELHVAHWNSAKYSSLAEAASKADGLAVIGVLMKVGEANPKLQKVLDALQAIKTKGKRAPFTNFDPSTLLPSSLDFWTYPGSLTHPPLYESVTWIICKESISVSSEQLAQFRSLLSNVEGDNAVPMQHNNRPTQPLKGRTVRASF
Assay [8] concerns the target Adenosine receptor A2a (Homo sapiens, UniProt P29274). The assay is described as follows: Displacement of [3H]-NECA from human A2A receptor stably expressed in CHO cell membranes by radioligand competitive binding assay. Also on record: species or system Cell membrane.

Where only a bound is given, the exact number is not on record here.

Sequence of Adenosine receptor A2a (P29274 whole entry): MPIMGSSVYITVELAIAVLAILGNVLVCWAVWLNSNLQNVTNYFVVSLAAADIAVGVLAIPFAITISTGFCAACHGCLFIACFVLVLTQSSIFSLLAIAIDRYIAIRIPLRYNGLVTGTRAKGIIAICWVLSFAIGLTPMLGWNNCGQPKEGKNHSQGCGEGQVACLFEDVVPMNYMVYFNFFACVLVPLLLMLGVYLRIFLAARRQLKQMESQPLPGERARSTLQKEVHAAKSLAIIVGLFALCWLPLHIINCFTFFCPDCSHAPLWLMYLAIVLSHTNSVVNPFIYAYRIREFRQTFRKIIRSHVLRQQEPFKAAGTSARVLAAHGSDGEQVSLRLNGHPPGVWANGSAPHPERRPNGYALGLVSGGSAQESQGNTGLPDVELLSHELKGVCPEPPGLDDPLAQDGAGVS

The term Ki denotes a dissociation constant, usually derived from enzyme kinetics or from competition with a known ligand. Low readings indicate tighter binding, high ones weaker binding. What is called IC50 is the midpoint of a concentration-inhibition curve. For `Nc1nc(-c2ccc(NC(=O)CCNC(=O)c3ccc(S(N)(=O)=O)cc3)cc2)cn2c(=O)n(-c3ccccc3)nc12`, the Ki was 0.027 µM in assay [1]; 1.07 µM in assay [2]; over 30 µM in assay [3]; 0.0086 µM in assay [5]; 0.005 µM in assay [6]; 0.0515 µM in assay [7]. In assay [4], the IC50 was over 30 µM.

With `COc1ccc(C(=O)Nc2ccc(-c3cn4c(=O)n(-c5ccccc5)nc4c(N)n3)cc2)cc1OC`, the Ki in assay [1] is over 100 µM; in assay [2] it was 0.0988 µM; in assay [3], over 30 µM; in assay [5], over 100 µM; in assay [8] it was 0.0206 µM; in assay [6], over 100 µM. This molecule returned a Ki in assay [7] of over 100 µM. In addition, the IC50 in assay [4] was over 30 µM.

Regarding `Nc1nc(-c2ccc(NC(=O)c3ccc(O)c(O)c3)cc2)cn2c(=O)n(-c3ccccc3)nc12`, the Ki in assay [1] is over 100 µM; in assay [2], 0.546 µM; in assay [3], 1.25 µM; in assay [5] it was 31.7 µM; in assay [8], 0.009 µM; in assay [6], 44.3 µM. Moreover, the Ki in assay [7] was over 100 µM. Further, in assay [4], the concentration for half-maximal inhibition (IC50) was over 30 µM.

Consider `Nc1nc(-c2ccc(NC(=O)CCNC(=O)c3cccc(S(N)(=O)=O)c3)cc2)cn2c(=O)n(-c3ccccc3)nc12`, for which the Ki is 0.83 µM in assay [1]; 0.418 µM in assay [2]; over 30 µM in assay [3]; 0.341 µM in assay [5]; 0.0092 µM in assay [8]; 6.92 µM in assay [6]. In addition, in assay [7], the Ki worked out at 7.28 µM. The IC50 in assay [4] was over 30 µM.

For the molecule `Nc1nc(-c2ccc(NC(=O)c3ccc(C(=O)NO)cc3)cc2)cn2c(=O)n(-c3ccccc3)nc12`, the Ki in assay [1] was over 100 µM; in assay [2], 0.395 µM; in assay [3], 0.546 µM; in assay [5], 63 µM; in assay [8], 0.036 µM; in assay [6], over 100 µM. The molecule also showed a Ki in assay [7] of over 100 µM. Moreover, the IC50 in assay [4] is over 30 µM.

In the case of `Nc1nc(-c2ccc(S(N)(=O)=O)cc2)cn2c(=O)n(-c3ccccc3)nc12`, the Ki in assay [1] turned out to be 0.602 µM; in assay [2], 0.205 µM; in assay [3], 14.8 µM; in assay [5], 0.703 µM; in assay [8], 0.857 µM; in assay [6], 8.92 µM. The molecule also had a Ki in assay [7] of 8.02 µM. In addition, the IC50 in assay [4] was over 30 µM.

On to `Nc1nc(-c2ccc(O)cc2)cn2c(=O)n(-c3ccccc3)nc12`, for which the Ki in assay [1], in assay [5], in assay [6] and in assay [7] was over 100 µM in each case. The IC50 in assay [4] is over 30 µM.

Turning to `Nc1nc(-c2ccc(NC(=O)c3ccc(O)cc3)cc2)cn2c(=O)n(-c3ccccc3)nc12`, the Ki in assay [1] is 4.4 µM; in assay [2], 0.194 µM; in assay [3] it was 1.07 µM; in assay [5], 47.3 µM; in assay [8] it was 0.0412 µM; in assay [6], over 100 µM. In assay [7], this molecule registered a Ki of over 100 µM. The IC50 in assay [4] was over 30 µM.

As for `Nc1nc(-c2ccc(NC(=O)c3ccc(S(N)(=O)=O)cc3)cc2)cn2c(=O)n(-c3ccccc3)nc12`, the Ki in assay [1] was 0.006 µM; in assay [2], 4.19 µM; in assay [3], over 30 µM; in assay [5], 0.046 µM; in assay [6], 0.466 µM; in assay [7], 8.35 µM. Also, the IC50 in assay [4] was over 30 µM.

In the case of `CN(C)c1nc(-c2ccc(S(N)(=O)=O)cc2)cn2c(=O)n(-c3ccccc3)nc12`, the Ki in assay [1] came to 0.358 µM; in assay [2], 0.435 µM; in assay [3] it was 19.5 µM; in assay [5] it was 0.464 µM; in assay [8], 3.89 µM; in assay [6], 6.73 µM. For the same molecule, the affinity in assay [7], expressed as Ki, was 2.09 µM. The IC50 in assay [4] was over 30 µM.

Consider `Nc1nc(-c2ccc(OCCNCCc3ccc(S(N)(=O)=O)cc3)cc2)cn2c(=O)n(-c3ccccc3)nc12`, for which the Ki in assay [1] came to 0.795 µM; in assay [2] it was 0.283 µM; in assay [3] it was 7.01 µM; in assay [5] it was 0.934 µM; in assay [8] it was 0.0879 µM; in assay [6] it was 9.46 µM. Besides, the Ki in assay [7] amounted to 0.973 µM. Also, in assay [4], the IC50 is over 30 µM.

As to `Nc1nc(-c2ccccc2O)cn2c(=O)n(-c3ccccc3)nc12`, the Ki in assay [1] was over 100 µM; in assay [5] it was 19 µM; in assay [6], over 100 µM; in assay [7], over 100 µM. Further, in assay [4], the IC50 is over 30 µM.

Consider `CCOC(=O)c1ccc(C(=O)Nc2ccc(-c3cn4c(=O)n(-c5ccccc5)nc4c(N)n3)cc2)cc1`, for which the Ki in assay [1] is over 100 µM; in assay [2], 7.48 µM; in assay [3], over 30 µM; in assay [5], over 100 µM; in assay [8], 1.36 µM; in assay [6], over 100 µM. Besides, in assay [7], the Ki was over 100 µM. In addition, in assay [4], the IC50 was over 30 µM.

`Nc1nc(-c2ccc(NCc3ccc(S(N)(=O)=O)cc3)cc2)cn2c(=O)n(-c3ccccc3)nc12`: the Ki in assay [1] is 0.625 µM; in assay [2], 0.0877 µM; in assay [3], over 30 µM; in assay [5] it was 0.897 µM; in assay [8], 0.0279 µM; in assay [6], 5.97 µM. The affinity in assay [7], expressed as Ki, was 0.57 µM. Further, the IC50 in assay [4] was over 30 µM.

Take `Nc1nc(-c2ccc(NCC(=O)c3ccc(S(N)(=O)=O)cc3)cc2)cn2c(=O)n(-c3ccccc3)nc12`: the Ki in assay [1] was found to be 0.0257 µM; in assay [2], 0.131 µM; in assay [3] it was 6.76 µM; in assay [5], 0.246 µM; in assay [8], 0.026 µM; in assay [6] it was 9.45 µM. The molecule also returned a Ki in assay [7] of 0.589 µM. In assay [4], the IC50 was over 30 µM.

As for `COc1ccc(C(=O)Nc2ccc(-c3cn4c(=O)n(-c5ccccc5)nc4c(N)n3)cc2)cc1`, the Ki in assay [1] was over 100 µM; in assay [2], 0.418 µM; in assay [3], 0.279 µM; in assay [5], over 100 µM; in assay [8], 0.0007 µM; in assay [6] it was over 100 µM. In assay [7], this molecule had a Ki of over 100 µM. Besides, the IC50 in assay [4] is over 30 µM.

For the molecule `Nc1nc(-c2ccc(NC(=O)c3ccc(C(=O)O)cc3)cc2)cn2c(=O)n(-c3ccccc3)nc12`, the Ki was over 100 µM in assay [1]; 2.37 µM in assay [2]; over 30 µM in assay [3]; over 100 µM in assay [5]; 0.0812 µM in assay [8]; over 100 µM in assay [6]. The Ki in assay [7] is over 100 µM. Further, the IC50 in assay [4] is over 30 µM.

On to `Nc1nc(-c2ccc(NC(=O)CCC(=O)O)cc2)cn2c(=O)n(-c3ccccc3)nc12`, for which the Ki in assay [1] is over 100 µM; in assay [2], 2.3 µM; in assay [3], 6.96 µM; in assay [5] it was over 100 µM; in assay [8], 0.573 µM; in assay [6] it was over 100 µM. In assay [7], this molecule had a Ki of over 100 µM. Besides, the IC50 in assay [4] is over 30 µM.

Take `CCOC(=O)CNc1ccc(-c2cn3c(=O)n(-c4ccccc4)nc3c(N)n2)cc1`: the Ki in assay [1] is over 100 µM; in assay [2] it was 0.771 µM; in assay [3] it was over 30 µM; in assay [5], over 100 µM; in assay [8], 6.3 µM; in assay [6], over 100 µM. The Ki in assay [7] is over 100 µM. Moreover, the IC50 in assay [4] was over 30 µM.

With `Nc1nc(-c2cccc(O)c2)cn2c(=O)n(-c3ccccc3)nc12`, the Ki is over 100 µM in assay [1], 93 µM in assay [5], over 100 µM in assay [6] and over 100 µM in assay [7]. The IC50 in assay [4] is over 30 µM.
